Measurements: patent publication US7125990B2, “Imidazolyl derivatives as corticotropin releasing factor inhibitors” (Bristol-Myers Squibb COmpany, priority 2001, dated 2006)

Molecular target: T1, CRF1 receptors (Homo sapiens, UniProt P34998)
T1 construct: endogenous in cells; host or cells: IMR-32 cells, transformed with 2.5 µM 5'-bromo-2'-deoxyuridine for 10 days; membrane preparation
T1 sequence (P34998 24-415): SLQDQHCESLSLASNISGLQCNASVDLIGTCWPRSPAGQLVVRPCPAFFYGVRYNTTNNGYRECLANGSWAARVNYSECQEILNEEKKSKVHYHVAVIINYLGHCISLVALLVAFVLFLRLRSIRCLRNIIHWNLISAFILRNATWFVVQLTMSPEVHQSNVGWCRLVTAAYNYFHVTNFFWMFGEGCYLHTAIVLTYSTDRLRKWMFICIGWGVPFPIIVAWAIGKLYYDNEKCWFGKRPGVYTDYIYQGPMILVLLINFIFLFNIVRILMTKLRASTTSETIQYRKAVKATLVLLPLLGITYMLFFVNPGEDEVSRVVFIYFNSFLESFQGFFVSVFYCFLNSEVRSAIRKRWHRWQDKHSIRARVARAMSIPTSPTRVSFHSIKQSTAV
Experiment: CRF1 receptor radioligand binding assay ([125I]-oCRF competition, IMR-32 cell membranes)
Conditions: IMR-32 cell membranes, [125I]-oCRF 100 pM; read-out: Ki (CRF-1R)
Procedure, shortened: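 Buffer: Tris pH 7.2 with MgCl2, BSA, Triton X-100, aprotinin, leupeptin; reaction stopped with ice-cold wash and filtered. Nonspecific binding set with 10 μM oCRF.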

| SMILES | Ki |
| --- | --- |
| CCCN(CC1CC1)C(=O)c1c(C)nc2n(-c3c(C)cc(C)cc3C)c3ccc(F)cc3n12 [Example 139, 5-Fluoro-2-methyl-8-(2,4,6-trimethyl-phenyl)-8H-1,3a,8-triaza-cyclopenta[α]indene-3-carboxylic acid cyclopropylmethyl-propyl-amide] | < 10000 nM |
| CCCN(Cc1c(C(F)(F)F)nc2n1CCCN2c1c(C)cc(C)cc1Cl)CC(F)(F)F [Example 114, [8-(2-Chloro-4,6-dimethyl-phenyl)-2-trifluoromethyl-5,6,7,8-tetrahydro-imidazo[1,2-a]pyrimidin-3-ylmethyl]-propyl-(2,2,2-trifluoro-ethyl)-amine] | < 1000 nM |
| CCCCN(Cc1ccccc1)Cc1c(C(F)(F)F)nc2n(-c3c(C)cc(C)cc3C)c(Cl)cn12 [Example 311, Benzyl-butyl-[6-chloro-2-trifluoromethyl-7-(2,4,6-trimethyl-phenyl)-7H-imidazo[1,2-a]imidazol-3-ylmethyl]-amine] | < 1000 nM |
| CCCN(Cc1c(C(F)(F)F)nc2n(-c3c(C)cc(C)cc3C)c3ncccc3n12)CC(F)(F)C(F)(F)F [Example 224, (2,2,3,3,3-Pentafluoro-propyl)-propyl-[2-trifluoromethyl-8-(2,4,6-trimethyl-phenyl)-8H-1,3a,7,8-tetraaza-cyclopenta[α]inden-3-ylmethyl]-amine] | < 1000 nM |
| CCCN(Cc1c(C(F)(F)F)nc2n(-c3c(C)cc(C)cc3C)c(Cl)cn12)CC(F)(F)C(F)(F)F [Example 323, [6-Chloro-2-trifluoromethyl-7-(2,4,6-trimethyl-phenyl)-7H-imidazo[1,2-a]imidazol-3-ylmethyl]-(2,2,3,3,3-pentafluoro-propyl)-propyl-amine] | < 1000 nM |
| CCCN(CC1CC1)C(=O)c1c(CC)nc2n1CCN2c1c(C)cc(C)cc1Br [Example 46, 7-(2-Bromo-4,6-dimethyl-phenyl)-2-ethyl-6,7-dihydro-5H-imidazo[1,2-a]imidazole-3-carboxylic acid cyclopropylmethyl-propyl-amide] | < 10000 nM |
| Cc1cc(C)c(-n2c3ncccc3n3c(CN(CC4CC4)CC(F)(F)F)c(C(F)(F)F)nc23)c(C)c1 [Example 210, Cyclopropylmethyl-(2,2,2-trifluoro-ethyl)-[2-trifluoromethyl-8-(2,4,6-trimethyl-phenyl)-8H-1,3a,7,8-tetraaza-cyclopenta[α]inden-3-ylmethyl]-amine] | < 100 nM |
| CCCCN(CC)Cc1c(C(F)(F)F)nc2n(-c3ccc(C(C)C)cc3Br)c3ccccc3n12 [Example 203, [8-(2-Bromo-4-isopropyl-phenyl)-2-trifluoromethyl-8H-1,3a,8-triaza-cyclopenta[α]inden-3-ylmethyl]-butyl-ethyl-amine] | < 10000 nM |

Second part, the molecule after the results:

| Ki | SMILES |
| --- | --- |
| < 100 nM | CCCN(Cc1c(C)nc2n(-c3c(C)cc(C)cc3C)c3ccc(F)cc3n12)CC1CC1 [Example 145, Cyclopropylmethyl-[5-fluoro-2-methyl-8-(2,4,6-trimethyl-phenyl)-8H-1,3a,8-triaza-cyclopenta[a]inden-3-ylmethyl]-propyl-amine] |
| < 100 nM | CCCN(CCc1ccccc1)Cc1c(C(F)(F)F)nc2n(-c3c(C)cc(C)cc3C)c3ncccc3n12 [Example 217, Phenethyl-propyl-[2-trifluoromethyl-8-(2,4,6-trimethyl-phenyl)-8H-1,3a,7,8-tetraaza-cyclopenta[α]inden-3-ylmethyl]-amine] |
| < 100 nM | CCc1nc2n(c1C(=O)N(CC1CC1)CC(F)(F)F)CCN2c1c(C)cc(C)cc1Cl [Example 27, 7-(2-Chloro-4,6-dimethyl-phenyl)-2-ethyl-6,7-dihydro-5H-imidazo[1,2-a]imidazole-3-carboxylic acid cyclopropylmethyl-(2,2,2-trifluoro-ethyl)-amide] |
| < 100 nM | CCc1nc2n(c1C(=O)N(CC1CC1)CC(F)(F)C(F)(F)F)CCN2c1c(C)cc(Cl)cc1Cl [Example 32, 7-(2,4-Dichloro-6-methyl-phenyl)-2-ethyl-6,7-dihydro-5H-imidazo[1,2-a]imidazole-3-carboxylic acid cyclopropylmethyl-(2,2,3,3,3-pentafluoro-propyl)-amide] |
